Holding throughout (type): cell-based
Assay [1] concerns Pseudomonas aeruginosa K-Ps102. The experiment in a line: Minimum inhibitory concentration, serial dilution on nutrient agar. The following applies: KPS102, nutrient agar, 37° C., 18 hours incubation, read-out: MIC.
For assay [2], the system named is Staphylococcus aureus Smith. The assay is described as above. Conditions: 37° C., 18 hours incubation.
The test system of the next assay is bacteria. Description: Antibacterial activity (stated in words).
The test system of the next assay is Proteus rettgeri GN466. The experiment in a line: Minimum inhibitory concentration, serial dilution on nutrient agar. The following applies: Providencia rettgeri, GN466; nutrient agar, 37° C., 18 hours incubation; read-out: MIC.
For assay [3], the system named is Pseudomonas aeruginosa H11. The assay is described as above. Conditions: H11, nutrient agar, 37° C., 18 hours incubation, read-out: MIC.
Assay [4] relates to Escherichia coli K-12 ML 1410 R81. Described as above. The following applies: 18 h.
Assay [5] concerns Bacillus subtilis PCI 219. The description is as above. The following applies: PCI219, 37° C., 18 hours incubation.
Assay [6] concerns Pseudomonas maltophilia GN907. Described as above. The following applies: Stenotrophomonas maltophilia, 37° C., 18 hours incubation.
Assay [7] relates to Escherichia coli K-12 J5R 11-2. Described as above. The following applies: K12J5R112, 37° C., 18 hours incubation. The text has this:
(§1) The minimum inhibitory concentration (mcg/ml) of 1-N-[(S)-4-amino-2-hydroxybutyryl]-5,3',4'-trideoxykanamycin B (abbreviated as AHB-trideoxyKMB), 1-N-[(RS)-3-amino-2-hydroxypropionyl]-5,3',4'-trideoxykanamycin B (abbreviated as AHP-trideoxy-KMB) and 1-N-[(S)-4-amino-2-hydroxybutyryl]-5,3',4',6"-tetradeoxykanamycin B (abbreviated as AHB-tetradeoxyKMB) of the formula (II) according to this invention as well as of the new compound 5,3',4',6"-tetradeoxykanamycin B (abbreviated as tetradeoxyKMB) of the formula (III) according to this invention against various microorganisms were determined according to serial dilution method on a nutrient agar medium at 37° C., the estimation being made after 18 hours incubation. For comparison purpose, the minimum inhibitory concentrations of habekacin were also determined in the same manner as stated above.
(§2) The minimum inhibitory concentrations (mcg/ml) of 1-N-[(S)-4-amino-2-hydroxybutyryl]-5,3',4'-trideoxy-6'-N-methylkanamycin B (abbreviated as AHB-trideoxyMKMB), 1-N-[(RS)-3-amino-2-hydroxypropionyl]-5,3',4'-trideoxy-6'-N-methylkanamycin B (abbreviated as AHP-trideoxyMKMB) and 1-N-[(S)-5-amino-2-hydroxyvaleryl]-5,3',4'-trideoxy-6'-N-methylkanamycin B (abbreviated as AHV-trideoxyMKMB) of the formula (IV) according to this invention as well as of the new compound 5,3',4'-trideoxy-6'-N-methylkanamycin B (abbreviated as trideoxyMKMB) of the formula (V) according to this invention against various microorganisms were determined according to serial dilution method on a nutrient agar medium at 37° C., the estimation being made after 18 hours incubation. For comparison purpose, the minimum inhibitory concentrations of 1-N-[(S)-4-amino-2-hydroxybutyryl]-3',4'-dideoxykanamycin B (ie. habekacin) were also determined in the same manner as stated above.

The subject of assay [8] is Shigella flexneri 4b JS11811. The description is as above. The following applies: 4BJS11811, 37° C., 18 hours incubation.
Excerpt: as §1, §2

Assay [9] deals with Escherichia coli K-12 C 600R/35. Described as above. The following applies: K12C600R/35, 37° C., 18 hours incubation.
Excerpt: as §1, §2

The next assay deals with Shigella sonnei JS11746. The description is as above. Conditions: 37° C., 18 hours incubation.
Excerpt: as §1, §2

Assay [10] concerns Escherichia coli K-12 ML 1630. The assay is described as above. The following applies: K12ML1630, 37° C., 18 hours incubation.
Excerpt: as §1, §2

The test system of assay [11] is Bacillus subtilis NRRL B-558. Described as above. The following applies: NRRLB558, 37° C., 18 hours incubation.
Assay [12] concerns Escherichia coli JR66/W677. Described as above. The following applies: JR66/W677, nutrient agar, 37° C., 18 hours incubation, read-out: MIC.

SMILES strings stand for the structures. Converted amounts (≈) assume the structure as drawn. Some results are limits rather than exact numbers.

One may read the MIC as the smallest concentration in the dilution series that meets the test's criterion for growth inhibition.

With `CNC[C@@H]1CC[C@@H](N)[C@@H](O[C@H]2C[C@@H](O[C@H]3O[C@H](CO)[C@@H](O)[C@H](N)[C@H]3O)[C@H](N)C[C@@H]2N)O1` [TrideoxyMKMB, 5,3',4'-trideoxy-6'-N-methylkanamycin B], the MIC in assay [1] was 25 µg/mL (≈ 55.6 µM); in [2], 0.39 µg/mL (≈ 0.868 µM); in the assay with Proteus rettgeri GN466, 25 µg/mL (≈ 55.6 µM); in [3], 25 µg/mL (≈ 55.6 µM); in [4] it was 25 µg/mL (≈ 55.6 µM); in assay [5], under 0.2 µg/mL. Further, the MIC is over 100 µg/mL in assay [6]; 25 µg/mL (≈ 55.6 µM) in assay [7]; 25 µg/mL (≈ 55.6 µM) in assay [8]; 12.5 µg/mL (≈ 27.8 µM) in [9]; 25 µg/mL (≈ 55.6 µM) with Shigella sonnei JS11746; 25 µg/mL (≈ 55.6 µM) in assay [10]. Further, the minimal inhibitory concentration (MIC) is 0.78 µg/mL (≈ 1.74 µM) in [11] and 100 µg/mL (≈ 222 µM) in assay [12]. Also, the antibacterial activity entry with bacteria is on record as “antibacterial activity higher than that of the 5,3',4'-trideoxykanamycin B especially against some resistant strains”.

Source of the values: US4410516A, “1-N(αHydroxy-ω-aminoalkanoyl) derivatives of 5,3',4'-trideoxy- or 5,3', 4'-trideoxy-6'-N- methyl- or 5, 3', 4',6"-tetradeoxykannamyci B and production thereof” (Zaidan Hojin Biseibutsu Kagaku Kenkyu Kai, priority 1981, dated 1983).
